Here are results for one compound from ChEMBL document CHEMBL5726853, “3-acetylenyl-pyrazole-pyrimidine derivative, and preparation method therefor and uses thereof” (2019).

The test concerns the target Proto-oncogene tyrosine-protein kinase Src (Homo sapiens, UniProt P12931).

SMILES strings stand for the structures.

Proto-oncogene tyrosine-protein kinase Src, sequence (P12931 2-536 limits assumed): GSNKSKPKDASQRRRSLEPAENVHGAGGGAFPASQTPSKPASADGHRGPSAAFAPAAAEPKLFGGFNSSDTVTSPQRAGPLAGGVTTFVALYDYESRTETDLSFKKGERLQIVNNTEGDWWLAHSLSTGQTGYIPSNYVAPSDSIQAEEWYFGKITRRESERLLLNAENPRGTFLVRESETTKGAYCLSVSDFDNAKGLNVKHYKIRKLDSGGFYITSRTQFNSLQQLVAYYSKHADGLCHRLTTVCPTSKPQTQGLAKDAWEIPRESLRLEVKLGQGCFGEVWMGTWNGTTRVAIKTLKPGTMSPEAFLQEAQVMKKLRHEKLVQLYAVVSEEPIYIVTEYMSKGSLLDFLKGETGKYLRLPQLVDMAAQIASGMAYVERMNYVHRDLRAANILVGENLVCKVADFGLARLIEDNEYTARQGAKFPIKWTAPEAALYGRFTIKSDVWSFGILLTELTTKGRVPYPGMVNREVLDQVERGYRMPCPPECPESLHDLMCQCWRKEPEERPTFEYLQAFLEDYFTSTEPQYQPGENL

The IC50 is the midpoint of a concentration-inhibition curve. A lower IC50 goes with greater potency in that assay. Compound `Cc1ccc(NC(=O)c2ccc(CN3CCN(C)CC3)cc2)cc1C#Cc1nn(C(C)C)c2ncnc(N)c12` showed an IC50 of 4 nM.
